This note sets out measurements from ChEMBL document CHEMBL1158846, “Three new bistetrahydrofuran acetogenins from the seeds of Annona spinescens” (J Nat Prod, 1998).

Data set [1] relates to KB. The experiment in a line: Cytotoxicity against human KB cells. The format is functional.
Data set [2] is described as follows: Cytotoxicity against african green monkey Vero cells. It is filed as cell-based. The settings on record: chlorocebus sabaeus, read-out: ED50 (the source's name).

Converted amounts (≈) assume the structure as drawn.

`CCCCCC(O)C(O)CCC[C@H](O)[C@H]1CC[C@@H]([C@@H]2CC[C@@H]([C@@H](O)CCCCCCCCCCCCC3=C[C@H](C)OC3=O)O2)O1` (stereo not given in full) [SPINENCIN] gave an ED50 in data set [1] of 1 ×10⁻⁵ ug/ml. In addition, the CC50 in data set [2] was 6 ng/mL (≈ 9.39 nM).
Regarding `CCCCCCC(O)CCC[C@H](O)[C@@H]1CC[C@@H]([C@@H]2CC[C@H]([C@H](O)CCCCCCCCCCC3=C[C@H](C)OC3=O)O2)O1` (stereo not given in full) [CAROLIN C], the ED50 in data set [1] was 2 ×10⁻⁴ ug/ml. Further, the CC50 in data set [2] was 50 ng/mL (≈ 84.1 nM).
Consider `CCCCCC[C@H](O)CCC[C@H](O)[C@H]1CC[C@H]([C@H]2CC[C@H]([C@H](O)CCCCCCCCCCCCC3=C[C@H](C)OC3=O)O2)O1` [SQUAMOCIN], for which the ED50 in data set [1] came to 4 ×10⁻⁴ ug/ml. Further, in data set [2], the CC50 worked out at 10 ng/mL (≈ 16.1 nM).
`CCCCCC(O)CCCC[C@H](O)[C@@H]1CC[C@@H]([C@@H]2CC[C@H]([C@H](O)CCCCCCCCCCCCC3=C[C@H](C)OC3=O)O2)O1` (stereo not given in full) [CAROLIN B] returned an ED50 in data set [1] of 5 ×10⁻⁶ ug/ml. In addition, the CC50 in data set [2] worked out at 3.7 ng/mL (≈ 5.94 nM).
The like results for `CCCCCCC(O)CCC[C@H](O)[C@@H]1CC[C@@H]([C@@H]2CC[C@H]([C@H](O)CCCCCCCCCCCCC3=C[C@H](C)OC3=O)O2)O1` (stereo not given in full) [CAROLIN A] were, in that order, 1 ×10⁻⁷ ug/ml and 2 ng/mL (≈ 3.21 nM).
